These are literature values, as cited in patent publication US20250144059A1, “GUANIDINOACETIC ACID, ITS DERIVATES, COMPOSITIONS AND METHODS OF USE THEREOF” (priority 2023, published 2025).

SMILES strings stand for the structures.

The conditions of this data set: Merck Index 15th Edition 2013, item #4530.

As for `N=C(N)NCC(=O)O` [Number G10, guanidinoacetic acid], the solubility in water result is recorded as “fairly soluble in water”.
